Reference: patent publication US6211223A, “Indole derivatives useful in therapy” (Pfizer Inc., priority 1997, dated 2001)

Experiments:
[1] = molecular target: T1, cloned human ETA receptor (Homo sapiens, UniProt P25101); experiment: Test A: Binding Assay, competition with 125I-ET-1, Binding to ETA Receptors (selectivity versus Binding to ETB Receptors)
T1 sequence (P25101 21-427): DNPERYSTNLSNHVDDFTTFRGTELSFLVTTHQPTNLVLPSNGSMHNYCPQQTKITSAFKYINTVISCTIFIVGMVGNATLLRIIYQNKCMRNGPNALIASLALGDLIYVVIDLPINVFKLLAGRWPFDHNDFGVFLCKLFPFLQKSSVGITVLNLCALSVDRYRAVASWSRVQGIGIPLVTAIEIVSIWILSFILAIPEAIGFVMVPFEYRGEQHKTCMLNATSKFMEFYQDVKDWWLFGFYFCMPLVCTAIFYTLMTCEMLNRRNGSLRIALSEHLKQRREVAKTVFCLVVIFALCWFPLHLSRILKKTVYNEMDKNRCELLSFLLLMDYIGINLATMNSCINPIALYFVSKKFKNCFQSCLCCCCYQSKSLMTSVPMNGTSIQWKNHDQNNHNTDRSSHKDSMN
Description: Competition between test compounds and ^125 I-ET-1 binding to human endothelin receptors is determined as follows.
(§1) 25 μl of a 30 pM solution of [^125 I]Tyr^13 ET-1 (specific activity 2,200 Ci/mM) is mixed with 25 μl samples of test compound (final concentrations in the range 0.1 nM-50,000 nM). 200 μl of a solution containing cloned human ETA receptor (0.75 pmoles receptor protein/ml), 50 mM Tris, 0.5 mM CaCl2, 0.1% human serum albumen, 0.1% bacitracin, 0.05% Tween 20, pH 7.4 is added. The solution is mixed at 37° C. for 2 hours. After the incubation, the unbound ligand is separated from receptor bound ligand by filtration with a Brandel cell harvester, followed by three washes of buffer. Filter papers are counted for radioactivity, and the IC50 (the concentration of test compound at which 50% of the radiolabelled compound is unbound) determined for the concentration range tested.
as §1, with “concentration” for “concentrations in the range”, “ETB” for “ETA”, “(0.25” for “(0.75”

[2] = test system: neointimal formation; conditions: rats, balloon angioplasty; S. Douglas et al, Circ Res, 75, 1994; cited from earlier work

## COc1cc(C)ccc1S(=O)(=O)NC(=O)[C@@H](c1ccc2c(c1)OCO2)c1cn(C)c2cc(C(=O)O)ccc12 [Example 1, (S)-(+)-3-{1-(1,3-Benzodioxol-5-yl)-2-[(2-methoxy-4-methylphenyl)sulfonyl-amino]-2-oxoethyl}-1-methyl-1H-indole-6-carboxylic acid]
[1]; ETA over ETB
  selectivity for ETA receptors over ETB receptors: approximately 400
[1]; fraction of the IC50 (ETA) of the (-)-enantiomer
  IC50 (ETA) relative to that of its enantiomer: approximately one quarter
[1]; human ETA receptor, read-out: binding affinity for ETA receptors (Ki)
  Ki: 4.18 nM

## CCCOc1ccc2c(c1)[C@@H](c1ccc(OC)cc1OCC(=O)O)[C@H](C(=O)O)[C@H]2c1ccc2c(c1)OCO2 [SB-209670]
[2]
  reduction in neointimal formation relative to control animals: 50%
